Publication PMC3620387, “Targeting the EGFR/PCNA Signaling Suppresses Tumor Growth of Triple-Negative Breast Cancer Cells with Cell-Penetrating PCNA Peptides” (PLoS ONE, 2013)

Assays:
MDA-MB 231 cells [1] = experiment: WST-1 cell viability assay; assay type: cell-based, human; details: 24 h
Procedure: (§1) Cell viability was determined by WST-1 (4-[3-(4-Iodophenyl)-2-(4-nitrophenyl) -2H-5-tetrazolio]-1,3-benzene disulfonate) assay (Roche). Cells were incubated with or without TKI or CPPP. After culturing for another 24 h, one-tenth volume of WST-1 was added at 4 h before harvest, and the absorbance was detected at 450 nm. Cell viability was normalized by the absorbance from the cells without treatment.

MDA-MB 468 cells [2] = experiment: WST-1 cell viability assay; assay type: cell-based, human; details: 24 h
Procedure: as §1

MDA-MB 231 cells [3] = experiment: Apoptosis assay, Annexin V staining, flow cytometry; assay type: cell-based, human; details: 15 µM, 24 h
Procedure: (§2) For apoptosis assay using annexin V staining, cells treated with the CPPP for 24 h and the cells were harvested and resuspended in the binding buffer and then incubated with FITC-conjugated Annexin V and propidium iodide (PI), according to the manufacturer's protocol (BD Biosciences). The percentage of apoptotic cells were assessed by flow cytometry.

MDA-MB 468 cells [4] = experiment: as above; assay type: cell-based, human; details: 24 h
Procedure: as §2

MDA-MB 468 cells [5] = experiment: Subcutaneous MDA-MB 468 xenograft; assay type: in vivo, nude mice; details: 200 nmol/mouse, intratumoral injection; for tumor volume compared with control or scrambled peptides / tumor mass compared with control or scrambled peptide group: nude mice; for tumor volume compared with control or scrambled peptides: Fig. 5A, S1A; for tumor mass compared with control or scrambled peptide group: end of experiment, Fig. 5B, S1B
Procedure: (§3) For subcutaneous implantation, MDA-MB 468 cells (1×10^7 in 100 µL of sterile Dulbecco's phosphate-buffered saline; PBS) were inoculated into nude mice by subcutaneous injection into the flanks. Each group contained 4 mice that were inoculated with tumor cells on both flanks (n = 8). When the tumors were palpable, mice were grouped randomly into 3–4 groups with 4 mice in each group. The mice were then treated with control vehicle, control scrambled peptide, Y211F CPPP, RF6 CPPP, or D-RF6 CPPP, by intratumoral injection. For orthotopic implantation, tumor xenografts were established by injection of Iressa-resistant MDA-MB 468 (IR) cells (1×10^7 resuspended in a 1∶1 mixture of PBS and Matrigel (BD Biosciences) in a total volume of 100 µL) into the mammary fat pad on either side of each 6–8-week old female severe combined immunodeficient (SCID) mice, respectively. When the tumors were palpable, the mice bearing IR tumor xenografts were treated with control vehicle, control scrambled peptide, D-RF6 CPPP (200 nmol/mouse) by intraperitoneal injection. Tumor growth was monitored 3 times/week for five weeks by measuring tumor perpendicular diameters. Tumor volume (V) was calculated using the following formula: V = length×diameter^2×0.5.
(§4) Figure 5 The effect of CPPP on tumor growth in vivo. (A) Approximately 1×10^7 MDA-MB 468 cells were subcutaneously injected into the flanks of nude mice. When the tumors were palpable, mice were randomly divided into 4 groups and treated with PBS (Control), scrambled peptide for RF6 (Scramble), RF6 CPPP, or D-RF6 CPPP (200 nmol/mouse) by intratumoral injection. Tumor volume was measured the tumor volume at the indicated time point. (B) The weight of each of the harvested tumors from (A) was measured after treatment. (C) Approximately 1×10^7 Iressa-resistant MDA-MB 468 (MDA-MB 468/IR) cells were injected into the mammary fat pad on either side of SCID mice. When the tumors were palpable, mice were randomly divided into 3 groups and treated with PBS (Control), scrambled peptide for D-RF6 (Scramble), or D-RF6 CPPP (200 nmol/mouse) by intratumoral injection. Tumor volume was measured the tumor volume at the indicated time point. (D) The weight of each of the harvested tumors from (C) was measured after treatment. The curves and bars indicate mean ± S.D.; *, p<0.05; **, p<0.01; ***, p<0.001 by t-test. (E) Extracted tumor tissue lysates from (D), the protein levels of EGFR, p-Y211, PCNA and cleaved-caspase-3 were determined by IB.
Supplementary file pone.0061362.s001.tif: Figure S1 The effect of Y211F CPPP on tumor growth in vivo. (A) Approximately 1×10^7 MDA-MB 468 cells were subcutaneously injected into the flanks of nude mice. When the tumors were palpable, mice were randomly divided into 3 groups and treated with PBS (Control), scrambled peptide for Y211 (Scramble), or Y211F CPPP (200 nmol/mouse) by intratumoral injection. Tumor volume was measured the tumor volume at the indicated time point. (B) The weight of each of the harvested tumors was measured after treatment. The curves and bars indicate mean ± S.D.; *, p<0.05; **, p<0.01; ***, p<0.001 by t-test. (TIF) Click here for additional data file.

[6] = tested on: Iressa-resistant MDA-MB 468 (MDA-MB 468/IR) cells; experiment: Orthotopic Iressa-resistant MDA-MB 468 xenograft (mammary fat pad); assay type: in vivo, SCID mice
Procedure: as §3, §4

MCF10A = experiment: WST-1 cell viability assay; assay type: cell-based; details: up to 50 µM, 24 h, WST-1, Fig. 1B
Procedure: as §1

nEGFR/PCNA = biological target: T1, nEGFR/PCNA (Homo sapiens, UniProt P00533); experiment: Immunoprecipitation/immunoblot of chromatin lysates: nEGFR binding to PCNA; assay type: cell-based; details: 30 µM, 24 h, IP anti-PCNA, IB, Fig. 2B
T1 construct: endogenous in cells; host or cells: MDA-MB 468 human TNBC cells (chromatin lysates)
Procedure: Cell extraction, immunoprecipitation and Western blotting were performed as described previously, [29].
The fluorescent images were observed under a confocal microscopy.

[7] = tested on: Iressa-resistant MDA-MB 468 (IR); experiment: WST-1 cell viability assay; assay type: cell-based, human; details: 15 µM, 24 h, Fig. 3E
Procedure: (§5) Human triple-negative breast cancer (TNBC) cell lines (MDA-MB 468, and MDA-MB 231) were purchased from American Type Culture Collection. All cells were maintained in DMEM/F12 (1∶1) with 10% FBS. EGFR TKI-resistant TNBC cell lines: Iressa-resistant MDA-MB 468 (IR) and Tarceva-resistant MDA-MB 468 (TR) were established by treatment with gradually increasing concentrations of these drugs for over one month. These TKI-resistant clones were cultured in the presence of 1 µM TKIs. The following peptides were synthesized by MDBio, Inc: Y211F CPPP (Y211F; […]); AK10 CPPP (AK10; […]); TF10 CPPP (TF10; […]); TN8 CPPP (TN8; […]); RK8 CPPP (RK8; […]); RF6 CPPP (RF6; […]); D-RF6 CPPP (D-RF6; […]); Scrambled peptides for Y211F (Scramble; […]); Scrambled peptides for RF6 (Scramble; […]). […]
(§6) Cell viability was determined by WST-1 (4-[3-(4-Iodophenyl)-2-(4-nitrophenyl) -2H-5-tetrazolio]-1,3-benzene disulfonate) assay (Roche). […] After culturing for another 24 h, one-tenth volume of WST-1 was added at 4 h before harvest, and the absorbance was detected at 450 nm. Cell viability was normalized by the absorbance from the cells without treatment.
(§7) Figure 3 The cytotoxic effect of CPPP in TKI-resistant TNBC cells. […] (E–F) The P-, IR-, or TR-TNBC cells were treated with 15 µM Y211F CPPP for 24 h and the relative cell viability (E) and Annexin V-positive cells (F) were determined. […]

[8] = tested on: Tarceva-resistant MDA-MB 468 (TR); experiment: WST-1 cell viability assay; assay type: cell-based, human; details: 15 µM, 24 h, Fig. 3E
Procedure: as §5, §6, §7

[9] = tested on: Iressa-resistant MDA-MB 468 (IR); experiment: Apoptosis assay, Annexin V staining; assay type: cell-based, human; details: 15 µM, 24 h, Fig. 3F
Procedure: as §5, §2, §7

[10] = tested on: Tarceva-resistant MDA-MB 468 (TR); experiment: Apoptosis assay, Annexin V staining; assay type: cell-based, human; details: 15 µM, 24 h, Fig. 3F
Procedure: as §5, §2, §7

MDA-MB 468 cells [11] = details: 30 µM FITC-labeled peptide, 12 h, anti-EGFR staining, confocal microscopy, Fig. 2A
Procedure: Confocal microscopy was performed as previously described [29].
(A) MDA-MB 468 cells were treated with 30 µM FITC-labeled scrambled (FITC-Scrambled; top) or Y211F CPPP (FITC-Y211F; bottom) for 12 h. Subsequently, cells were fixed, permeabilized, and stained with anti-EGFR antibody or DAPI. The fluorescent images were observed under a confocal microscopy. The FITC-labeled peptide (green), EGFR (red), and nucleus (blue) are shown.

[12] = extracted tumor tissue lysates, IB, Fig. 5E
[13] = 15 µM Y211F CPPP combined with 1∼8 µM EGFR TKI (Tarceva or Iressa), Fig. 2C-2F
[14] = indicated concentrations, WST-1, Fig. 1B

Sequence: YGRKKRRQRRRGRFLNFF [D-RF6 CPPP, synthetic retro-inverted D form derivative of RF6 CPPP]
- growth suppression (relative cell viability) compared with RF6 CPPP (MDA-MB 231 cells [1]; indicated concentrations, Fig. 4F): enhanced the growth suppression
- growth suppression (relative cell viability) compared with RF6 CPPP (MDA-MB 468 cells [2]; indicated concentrations, Fig. 4E): enhanced the growth suppression
- apoptosis activity (Annexin V-positive cells) (MDA-MB 231 cells [3]; Fig. 4G): enhanced the growth suppression and apoptosis activity
- apoptosis activity (Annexin V-positive cells) (MDA-MB 468 cells [4]; 15 µM, flow cytometry, Fig. 4G): enhanced the growth suppression and apoptosis activity
- activity in suppressing tumor growth and reducing tumor volume, on an equimolar basis (MDA-MB 468 cells [5]; compared with Y211F CPPP): more potent than Y211F CPPP
- tumor mass compared with control or scrambled peptides ([6]; 200 nmol/mouse, SCID mice, harvested tumors, Fig. 5D): significantly reduced tumor volume and mass
- tumor volume compared with control or scrambled peptides ([6]; 200 nmol/mouse, SCID mice, intratumoral (Fig. 5C legend) or intraperitoneal (methods) injection): significantly reduced tumor volume and mass
- PCNA Y211 phosphorylation in tumor tissue [6, 12]: inhibited
- cleaved caspase-3 in tumor tissue [6, 12]: cleaved caspase-3 increased

Sequence: YGRKKRRQRRRGRFLNFF [RF6 CPPP]
- relative cell viability (MDA-MB 468 cells [2]; 50 µM of each CPPP derivative, Fig. 4B): minimal effective peptide
- apoptosis (Annexin V-positive cells) (MDA-MB 468 cells [4]; 50 µM of each CPPP derivative, Fig. 4C): minimal effective peptide
- tumor volume compared with control or scrambled peptides (MDA-MB 468 cells [5]): significantly reduced tumor volume
- tumor mass compared with control or scrambled peptide group (MDA-MB 468 cells [5]): significantly smaller tumor mass

Sequence: YGRKKRRQRRRGTFALRFLNFFTK [Y211F CPPP]
- relative cell viability, combination with EGFR TKI (MDA-MB 231 cells [1]; [13]): enhanced the effect of both TKIs
- cancer cells killed (MDA-MB 231 cells [1]; 50 µM, WST-1, Fig. 1B): more than 80%
- relative cell viability (MDA-MB 231 cells [1]; [14]): suppressed cell viability
- relative cell viability, combination with EGFR TKI (MDA-MB 468 cells [2]; [13]): enhanced the effect of both TKIs
- cancer cells killed (MDA-MB 468 cells [2]; 50 µM, WST-1, Fig. 1B): more than 80%
- relative cell viability (MDA-MB 468 cells [2]; [14]): suppressed cell viability
- relative cell viability (MCF10A): no effect
- apoptotic response (Annexin V-positive cells) (MDA-MB 231 cells [3]; Fig. 1C): observed only in MDA-MB 468 and MDA-MB 231 cells
- apoptotic response (Annexin V-positive cells) (MDA-MB 468 cells [4]; 15 µM, flow cytometry, Fig. 1C): observed only in MDA-MB 468 and MDA-MB 231 cells
- nEGFR binding to PCNA on chromatin (nEGFR/PCNA): prevented nEGFR from binding PCNA
- relative cell viability compared with parental cells [7]: more sensitive
- relative cell viability compared with parental cells [8]: more sensitive
- Annexin V-positive cells compared with parental cells [9]: more sensitive
- Annexin V-positive cells compared with parental cells [10]: more sensitive
- tumor volume compared with control or scrambled peptides (MDA-MB 468 cells [5]): significantly reduced tumor volume
- tumor mass compared with control or scrambled peptide group (MDA-MB 468 cells [5]): significantly smaller tumor mass
- targeting of EGFR (MDA-MB 468 cells [11]): specifically targeted EGFR
